Laboratory results published in ChEMBL document CHEMBL1153880, “Synthesis and adrenolytic activity of 1-(1H-indol-4-yloxy)-3-{[2-(2-methoxyphenoxy)ethyl]amino}propan-2-ol and its enantiomers. Part 1” (Eur J Med Chem, 2009).

Columns and labels:
[1] = Acute toxicity in iv dosed anaesthetized Wistar rat; type: organism-based; settings: in vivo
Rattus norvegicus [2] = test: Effect on heart rate in anaesthetized Wistar rat assessed as number of beats per minute at 1 mg/kg, iv after 1 min by electrocardiography; type: functional
Rattus norvegicus [3] = test: Effect on heart rate in anaesthetized Wistar rat assessed as number of beats per minute at 1 mg/kg, iv after 5 mins by electrocardiography; type: functional
Rattus norvegicus [4] = test: Antiarrhythmic activity against adrenaline-induced arrhythmia in iv dosed anaesthetized Wistar rat assessed as inhibition of premature ventricular beats pretreated 60 mins prior to adrenaline challenge; type: functional; settings: Heart
Rattus norvegicus [5] = test: Effect on electrocardiogram in anaesthetized Wistar rat assessed as change in P-Q interval at 1 mg/kg, iv after 1 min by electrocardiography; type: functional
[6] = Therapeutic index, ratio of LD50 for Wistar rat to antiarrhythmic ED50 for Wistar rat; type: organism-based, Heart; settings: in vivo, read-out: TI

| Compound | LD50 [1] | Activity (Rattus norvegicus [2]) | Activity (Rattus norvegicus [3]) | ED50 (Rattus norvegicus [4]) | Activity (Rattus norvegicus [5]) | selectivity ratio [6] |
| --- | --- | --- | --- | --- | --- | --- |
| COc1ccccc1OCCNCC(O)COc1cccc2[nH]c3ccccc3c12 (stereo not drawn) [CARVEDILOL] | 25 mg/kg | 345.2 min⁻¹ | 340.3 min⁻¹ | 0.25 mg/kg | 50 ms | – |
| CC(C)NCC(O)COc1cccc2[nH]ccc12 (stereo not drawn) [PINDOLOL] | 39 mg/kg | – | – | 1.05 mg/kg | – | 37 |
